Data from patent US20240057638A1, “COMPOSITIONS FOR REDUCING METHANE EMISSION, METHODS FOR IMPROVING THE METABOLIC EFFICIENCY OF RUMINANT ANIMALS AND METHANOGENESIS INHIBITOR ADMINISTRATION” (MOOTRAL INNOVATIONS LIMITED, priority 2020, published 2024).

System: Methanococcus maripaludis
Experiment: Inhibition of methane production by Methanococcus maripaludis culture (pressure drop by manometer after 24 h)
Type: cell-based
Conditions: for % Inhibition Gas: 37° C.
Procedure: For this experiment, bromoform was prepped at 100 mM by adding 8.75 μl bromoform to 991 μl DMSO. This was diluted 10x diluted to generate a 10 mM solution and further diluted to generate 0.12- and 0.156-mM stock solutions. Allicin stock solutions were prepared by adding 48.6 μl allicin to 951.4 μl DMSO to make a 300 mM stock solution and 32.5 μl allicin to 967.5 μl DMSO to make a 200 mM stock solution. The experiment was set up by adding 5 ml of M141 medium (https://www.dsmz.de/microorganisms/medium/pdf/DSMZ_Medium141.pdf) to a screw cap Hungate tube followed by the addition of 5 μl allicin and/or 5 μl bromoform or 10 μl DMSO as follows: • Tube 1: DMSO (10 μl) • Tube 2: Bromoform (5 μl 0.120 mM) (120 nM final)+5 μl DMSO • Tube 3: Bromoform (5 μl 0.156 mM) (156 nM final)+5 μl DMSO • Tube 4: Allicin (5 μl 200 mM) (200 μM final)+5 μl DMSO • Tube 5: Allicin (5 μl 300 mM) (300 μM final)+5 μl DMSO • Tube 6: Bromoform (5 μl 0.120 mM) (120 nM final)+Allicin (5 μl 200 mM) (200 μM final) • Tube 7: Bromoform (5 μl 0.120 mM) (120 nM final)+Allicin (5 μl 300 mM) (300 μM final) • Tube 8: Bromoform (5 μl 0.156 mM) (156 nM final)+Allicin (5 μl 200 mM) (200 μM final) • Tube 9: Bromoform (5 μl 0.156 mM) (156 nM final)+Allicin (5 μl 300 mM) (300 μM final)
After the addition of the test substances, 500 μl of an overnight M. maripaludis culture was added to each reaction tube. Each tube was gassed with 80% H2/20% CO2 to 240 kPa and incubated at 37° C. for 24 h.
After the 24 h incubation the pressure inside the tube was measured using a manometer. Given that 5 moles of H2/CO2 are consumed to generate 1 mole of CH4 the drop in pressure observed was used to calculate the amount of methane by the control and test reactions from which a percent inhibition was calculated.
For this experiment, bromoform was prepped at 100 mM by adding 8.75 μl bromoform to 991 μl DMSO. This was diluted 10× diluted to generate a 10 mM solution and further diluted to generate 0.10- and 0.156-mM stock solutions. The sample was prepared by adding 245 mg NXRH214 powder to 35 ml M141 medium (https://www.dsmz.de/microorganisms/medium/pdf/DSMZ_Medium141.pdf) to generate a 7 mg/ml stock solution. NXRH214 powder is a garlic powder (allicin) and citrus extract (polyphenol flavonoid mix) with a ratio of 93:7, where the flavonoid mix comprises mainly naringin and neohesperidin.

[1] = Methanococcus maripaludis, read-out: % Inhibition Gas

SMILES	inhibition at 0.1 µM [1]	inhibition at 0.156 µM [1]	% Inhibition Gas (Allicin 200 μM with DMSO)	% Inhibition Gas (Allicin 300 μM with DMSO)
BrC(Br)Br [Bromoform, bromoform]	0%	0.5%		
C=CCS[S@@+]([O-])CC=C (stereo in doubt) [Allicin, allicin]			0%	19%
